Activity calls are given as the source filed them. No cut-off for these calls is given here.
Tests used:
Histone deacetylase 4 = Histone deacetylase 4 (Homo sapiens, UniProt P56524); test: Inhibition of HDAC4 (unknown origin)
Histone deacetylase 2 [1] = target: T1, Histone deacetylase 2 (Homo sapiens, UniProt Q92769); test: Competitive inhibition of HDAC2 (unknown origin) at 444 to 1500 nM by Lineweaver-Burk plot analysis; details: dose 444-1500 nM
Histone deacetylase 2 [2] = target: T1, Histone deacetylase 2; test: Inhibition of HDAC2 (unknown origin)
Histone deacetylase 3 [3] = target: T2, Histone deacetylase 3 (Homo sapiens, UniProt O15379); test: Inhibition of HDAC3 (unknown origin) preincubated for 60 mins
T2 sequence (O15379 whole entry): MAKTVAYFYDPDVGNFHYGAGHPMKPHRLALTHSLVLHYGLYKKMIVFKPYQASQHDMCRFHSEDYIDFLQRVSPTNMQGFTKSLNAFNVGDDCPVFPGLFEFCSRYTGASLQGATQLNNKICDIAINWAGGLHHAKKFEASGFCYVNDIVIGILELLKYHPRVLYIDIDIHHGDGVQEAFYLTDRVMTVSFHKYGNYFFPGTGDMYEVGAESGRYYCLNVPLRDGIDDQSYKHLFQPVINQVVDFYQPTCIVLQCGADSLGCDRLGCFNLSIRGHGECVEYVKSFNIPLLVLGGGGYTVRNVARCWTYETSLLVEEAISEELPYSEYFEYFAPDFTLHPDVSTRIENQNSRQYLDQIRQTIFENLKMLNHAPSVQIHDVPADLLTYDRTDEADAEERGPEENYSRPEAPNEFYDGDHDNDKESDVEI

Histone deacetylase 7 = target: T3, Histone deacetylase 7 (Homo sapiens, UniProt Q8WUI4); test: Inhibition of HDAC7 (unknown origin)
T3 sequence (Q8WUI4 whole entry): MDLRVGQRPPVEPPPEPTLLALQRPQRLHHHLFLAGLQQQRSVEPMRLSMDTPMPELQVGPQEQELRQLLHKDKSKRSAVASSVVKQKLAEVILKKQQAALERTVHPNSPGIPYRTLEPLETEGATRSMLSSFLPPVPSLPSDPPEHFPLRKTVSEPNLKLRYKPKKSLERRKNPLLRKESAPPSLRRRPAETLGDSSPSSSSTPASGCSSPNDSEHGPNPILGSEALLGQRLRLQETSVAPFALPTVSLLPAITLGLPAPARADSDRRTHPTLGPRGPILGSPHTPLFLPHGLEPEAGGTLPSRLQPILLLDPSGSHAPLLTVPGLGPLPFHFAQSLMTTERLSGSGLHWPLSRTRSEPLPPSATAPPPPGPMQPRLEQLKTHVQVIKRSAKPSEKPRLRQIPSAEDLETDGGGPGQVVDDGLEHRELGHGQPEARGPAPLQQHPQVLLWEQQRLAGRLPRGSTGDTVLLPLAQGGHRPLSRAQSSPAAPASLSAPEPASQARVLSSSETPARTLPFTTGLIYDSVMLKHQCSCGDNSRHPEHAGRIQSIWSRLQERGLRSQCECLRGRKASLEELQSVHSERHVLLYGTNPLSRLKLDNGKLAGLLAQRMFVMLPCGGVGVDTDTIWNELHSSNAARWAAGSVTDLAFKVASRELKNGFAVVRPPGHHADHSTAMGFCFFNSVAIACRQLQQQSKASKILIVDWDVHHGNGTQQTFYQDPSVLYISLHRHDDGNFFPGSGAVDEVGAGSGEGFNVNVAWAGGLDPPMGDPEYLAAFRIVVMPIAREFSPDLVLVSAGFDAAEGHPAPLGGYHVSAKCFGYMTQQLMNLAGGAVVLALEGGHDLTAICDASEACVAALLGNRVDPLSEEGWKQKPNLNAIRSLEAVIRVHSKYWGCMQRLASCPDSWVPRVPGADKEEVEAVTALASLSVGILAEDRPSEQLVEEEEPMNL

[4] = target: T4, Protein deacetylase HDAC6 (Homo sapiens, UniProt Q9UBN7); test: Inhibition of HDAC6 (unknown origin)
T4 sequence (Q9UBN7 whole entry): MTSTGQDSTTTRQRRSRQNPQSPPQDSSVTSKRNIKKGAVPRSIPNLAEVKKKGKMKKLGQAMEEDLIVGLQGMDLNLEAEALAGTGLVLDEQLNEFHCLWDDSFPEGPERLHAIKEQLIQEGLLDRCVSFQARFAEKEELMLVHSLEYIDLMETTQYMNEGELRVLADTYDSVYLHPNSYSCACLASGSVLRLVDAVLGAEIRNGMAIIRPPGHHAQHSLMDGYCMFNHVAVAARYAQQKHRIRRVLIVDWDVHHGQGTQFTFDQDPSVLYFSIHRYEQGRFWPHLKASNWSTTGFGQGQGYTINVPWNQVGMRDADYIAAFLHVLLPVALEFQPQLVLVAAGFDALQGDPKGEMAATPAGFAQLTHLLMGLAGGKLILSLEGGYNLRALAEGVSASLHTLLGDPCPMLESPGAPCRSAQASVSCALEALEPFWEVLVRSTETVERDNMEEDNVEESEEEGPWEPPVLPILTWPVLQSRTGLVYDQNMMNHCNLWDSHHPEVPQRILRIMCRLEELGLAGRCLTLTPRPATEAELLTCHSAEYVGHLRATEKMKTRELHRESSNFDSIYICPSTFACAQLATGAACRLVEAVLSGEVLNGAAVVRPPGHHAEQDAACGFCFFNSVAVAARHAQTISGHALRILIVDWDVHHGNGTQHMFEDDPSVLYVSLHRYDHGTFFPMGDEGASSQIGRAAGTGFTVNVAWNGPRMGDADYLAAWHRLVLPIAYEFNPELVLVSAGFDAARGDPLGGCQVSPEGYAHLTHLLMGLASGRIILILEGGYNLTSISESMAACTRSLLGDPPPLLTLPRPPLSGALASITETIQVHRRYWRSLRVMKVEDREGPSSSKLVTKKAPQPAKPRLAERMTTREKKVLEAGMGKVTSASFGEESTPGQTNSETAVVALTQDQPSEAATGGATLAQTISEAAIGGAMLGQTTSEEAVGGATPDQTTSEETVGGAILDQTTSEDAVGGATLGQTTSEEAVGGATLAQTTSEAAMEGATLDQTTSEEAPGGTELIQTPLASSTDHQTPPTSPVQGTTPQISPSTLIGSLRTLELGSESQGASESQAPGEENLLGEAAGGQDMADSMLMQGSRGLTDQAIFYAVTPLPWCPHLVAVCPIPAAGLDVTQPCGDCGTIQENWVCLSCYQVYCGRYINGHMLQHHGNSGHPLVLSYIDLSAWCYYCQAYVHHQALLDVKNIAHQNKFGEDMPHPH

Histone deacetylase 1 [5] = target: T5, Histone deacetylase 1 (Homo sapiens, UniProt Q13547); test: Inhibition of HDAC1 (unknown origin) preincubated for 30 mins
T5 sequence (Q13547 whole entry): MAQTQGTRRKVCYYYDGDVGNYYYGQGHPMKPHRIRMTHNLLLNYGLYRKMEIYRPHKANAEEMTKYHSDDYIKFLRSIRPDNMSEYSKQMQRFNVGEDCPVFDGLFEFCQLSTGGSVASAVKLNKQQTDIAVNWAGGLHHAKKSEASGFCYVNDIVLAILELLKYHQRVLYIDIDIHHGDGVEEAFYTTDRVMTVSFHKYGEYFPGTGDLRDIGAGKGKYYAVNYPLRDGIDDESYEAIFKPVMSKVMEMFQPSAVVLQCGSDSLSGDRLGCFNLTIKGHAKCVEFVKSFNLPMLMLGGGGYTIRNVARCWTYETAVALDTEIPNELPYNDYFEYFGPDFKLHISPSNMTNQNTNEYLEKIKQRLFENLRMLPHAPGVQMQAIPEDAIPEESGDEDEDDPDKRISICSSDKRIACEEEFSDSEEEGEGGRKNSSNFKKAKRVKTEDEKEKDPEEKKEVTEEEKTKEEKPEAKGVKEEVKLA

Histone deacetylase 2 [6] = target: T1, Histone deacetylase 2; test: Inhibition of HDAC2 (unknown origin) preincubated for 90 mins
Histone deacetylase 11 = target: T6, Histone deacetylase 11 (Homo sapiens, UniProt Q96DB2); test: Inhibition of HDAC11 (unknown origin)
T6 sequence (Q96DB2 whole entry): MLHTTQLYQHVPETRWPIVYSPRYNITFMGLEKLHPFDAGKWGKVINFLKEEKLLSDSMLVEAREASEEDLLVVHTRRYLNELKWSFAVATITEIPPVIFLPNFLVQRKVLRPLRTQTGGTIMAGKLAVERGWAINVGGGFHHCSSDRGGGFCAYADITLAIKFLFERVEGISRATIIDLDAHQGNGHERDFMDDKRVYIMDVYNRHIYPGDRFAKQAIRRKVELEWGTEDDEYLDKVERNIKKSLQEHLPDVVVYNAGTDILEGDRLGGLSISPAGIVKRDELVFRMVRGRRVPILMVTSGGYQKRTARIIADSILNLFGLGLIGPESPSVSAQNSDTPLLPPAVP

[7] = target: T7, Polyamine deacetylase HDAC10 (Homo sapiens, UniProt Q969S8); test: Inhibition of HDAC10 (unknown origin)
T7 sequence (Q969S8 whole entry): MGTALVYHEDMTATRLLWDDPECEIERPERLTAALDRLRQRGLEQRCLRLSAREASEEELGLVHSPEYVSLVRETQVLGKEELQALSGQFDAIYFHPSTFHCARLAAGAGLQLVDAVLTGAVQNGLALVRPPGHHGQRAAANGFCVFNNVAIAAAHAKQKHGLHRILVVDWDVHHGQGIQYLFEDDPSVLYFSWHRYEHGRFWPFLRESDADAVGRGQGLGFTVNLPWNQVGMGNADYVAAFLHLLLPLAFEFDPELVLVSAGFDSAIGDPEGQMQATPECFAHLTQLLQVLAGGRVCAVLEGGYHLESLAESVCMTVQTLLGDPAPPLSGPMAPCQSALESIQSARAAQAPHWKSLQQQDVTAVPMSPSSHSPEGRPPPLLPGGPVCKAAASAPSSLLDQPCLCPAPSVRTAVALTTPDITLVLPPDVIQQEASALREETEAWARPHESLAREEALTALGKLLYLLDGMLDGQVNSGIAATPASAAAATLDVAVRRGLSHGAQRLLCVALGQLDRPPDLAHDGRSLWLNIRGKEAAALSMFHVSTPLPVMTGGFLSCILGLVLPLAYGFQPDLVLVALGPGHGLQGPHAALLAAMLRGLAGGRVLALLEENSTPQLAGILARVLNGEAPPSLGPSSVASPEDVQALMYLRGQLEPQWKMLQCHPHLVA

Histone deacetylase 3 [8] = target: T2, Histone deacetylase 3; test: Inhibition of HDAC3 (unknown origin) preincubated for 5 mins
Histone deacetylase 1 [9] = target: T5, Histone deacetylase 1; test: Inhibition of HDAC1 (unknown origin) preincubated for 60 mins
Histone deacetylase 3 [10] = target: T2, Histone deacetylase 3; test: Inhibition of HDAC3 (unknown origin) preincubated for 90 mins
Histone deacetylase 1 [11] = target: T5, Histone deacetylase 1; test: Inhibition of HDAC1 (unknown origin) preincubated for 5 mins
Histone deacetylase 2 [12] = target: T1, Histone deacetylase 2; test: Inhibition of HDAC2 (unknown origin) preincubated for 30 mins
Histone deacetylase 3 [13] = target: T2, Histone deacetylase 3; test: Competitive inhibition of HDAC3 (unknown origin) at 444 to 1500 nM by Lineweaver-Burk plot analysis; details: dose 444-1500 nM
Histone deacetylase 1 [14] = target: T5, Histone deacetylase 1; test: Inhibition of HDAC1 (unknown origin)
Histone deacetylase 3 [15] = target: T2, Histone deacetylase 3; test: Inhibition of HDAC3 (unknown origin) preincubated for 30 mins
Histone deacetylase 5 = Histone deacetylase 5 (Homo sapiens, UniProt Q9UQL6); test: Inhibition of HDAC5 (unknown origin)
Sequence of Histone deacetylase 5 (Q9UQL6 whole entry): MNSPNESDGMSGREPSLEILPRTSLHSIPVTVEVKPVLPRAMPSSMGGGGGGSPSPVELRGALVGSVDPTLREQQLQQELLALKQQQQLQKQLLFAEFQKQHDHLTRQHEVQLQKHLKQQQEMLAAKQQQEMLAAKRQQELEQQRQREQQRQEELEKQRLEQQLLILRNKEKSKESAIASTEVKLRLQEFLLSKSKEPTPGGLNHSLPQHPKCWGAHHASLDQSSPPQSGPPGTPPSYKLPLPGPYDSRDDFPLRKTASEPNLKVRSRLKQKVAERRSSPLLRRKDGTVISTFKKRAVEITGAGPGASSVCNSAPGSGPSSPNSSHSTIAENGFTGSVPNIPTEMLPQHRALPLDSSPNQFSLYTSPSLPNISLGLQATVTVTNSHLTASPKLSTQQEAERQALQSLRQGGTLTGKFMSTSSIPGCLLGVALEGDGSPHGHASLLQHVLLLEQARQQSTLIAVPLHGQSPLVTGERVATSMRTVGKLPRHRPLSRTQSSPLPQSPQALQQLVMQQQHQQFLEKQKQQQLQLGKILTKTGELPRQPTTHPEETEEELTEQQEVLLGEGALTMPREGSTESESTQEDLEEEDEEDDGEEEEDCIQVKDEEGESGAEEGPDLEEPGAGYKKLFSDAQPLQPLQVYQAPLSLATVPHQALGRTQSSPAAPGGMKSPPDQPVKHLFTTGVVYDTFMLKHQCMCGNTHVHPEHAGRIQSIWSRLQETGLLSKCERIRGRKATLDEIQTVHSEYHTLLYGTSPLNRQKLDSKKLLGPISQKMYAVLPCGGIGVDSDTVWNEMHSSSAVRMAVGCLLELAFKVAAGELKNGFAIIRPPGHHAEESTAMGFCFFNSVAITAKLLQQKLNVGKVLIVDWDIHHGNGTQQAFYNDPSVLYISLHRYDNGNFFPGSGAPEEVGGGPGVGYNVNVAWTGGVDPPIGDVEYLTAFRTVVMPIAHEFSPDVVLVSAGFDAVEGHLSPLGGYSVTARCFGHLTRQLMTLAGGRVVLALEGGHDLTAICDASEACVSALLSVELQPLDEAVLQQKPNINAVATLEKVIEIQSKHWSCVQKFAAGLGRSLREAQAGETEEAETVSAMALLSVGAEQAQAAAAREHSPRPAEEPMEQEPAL

MV4-11 = test: Antiproliferative activity against human MV4-11 cells; type: functional, cell-based
Histone deacetylase 3 [16] = target: T2, Histone deacetylase 3; test: Inhibition of HDAC3 (unknown origin)
Histone deacetylase 3 [17] = target: T2, Histone deacetylase 3; test: Inhibition of HDAC3 (unknown origin) preincubated for 120 mins
Histone deacetylase 9 = Histone deacetylase 9 (Homo sapiens, UniProt Q9UKV0); test: Inhibition of HDAC9 (unknown origin)
Sequence of Histone deacetylase 9 (Q9UKV0 whole entry): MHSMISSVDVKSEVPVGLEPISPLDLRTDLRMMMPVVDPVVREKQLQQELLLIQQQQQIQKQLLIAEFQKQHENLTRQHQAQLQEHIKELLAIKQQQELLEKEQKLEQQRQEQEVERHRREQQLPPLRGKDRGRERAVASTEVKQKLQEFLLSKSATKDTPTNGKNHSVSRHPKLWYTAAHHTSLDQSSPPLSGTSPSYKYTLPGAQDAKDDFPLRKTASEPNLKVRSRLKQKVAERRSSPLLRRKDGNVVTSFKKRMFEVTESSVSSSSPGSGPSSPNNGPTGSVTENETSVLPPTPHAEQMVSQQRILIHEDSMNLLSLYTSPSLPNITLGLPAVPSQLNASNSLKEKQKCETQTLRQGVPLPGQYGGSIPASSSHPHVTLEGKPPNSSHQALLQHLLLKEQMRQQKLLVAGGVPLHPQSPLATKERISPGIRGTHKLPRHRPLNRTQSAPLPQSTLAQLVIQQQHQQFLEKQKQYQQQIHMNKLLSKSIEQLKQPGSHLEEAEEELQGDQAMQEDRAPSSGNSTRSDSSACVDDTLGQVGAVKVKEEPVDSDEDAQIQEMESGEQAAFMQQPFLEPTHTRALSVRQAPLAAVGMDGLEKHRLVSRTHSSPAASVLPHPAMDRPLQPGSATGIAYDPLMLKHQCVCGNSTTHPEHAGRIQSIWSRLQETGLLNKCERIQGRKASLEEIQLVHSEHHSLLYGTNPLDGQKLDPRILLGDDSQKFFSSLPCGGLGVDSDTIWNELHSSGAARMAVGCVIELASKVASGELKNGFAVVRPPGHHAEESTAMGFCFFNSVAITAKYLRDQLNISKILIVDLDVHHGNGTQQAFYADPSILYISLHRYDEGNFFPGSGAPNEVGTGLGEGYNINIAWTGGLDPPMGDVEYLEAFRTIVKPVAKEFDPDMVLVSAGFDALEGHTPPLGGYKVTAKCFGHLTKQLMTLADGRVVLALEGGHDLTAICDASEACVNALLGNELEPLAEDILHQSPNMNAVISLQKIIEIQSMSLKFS

Histone deacetylase 2 [18] = target: T1, Histone deacetylase 2; test: Inhibition of HDAC2 (unknown origin) preincubated for 120 mins
Histone deacetylase 8 = target: T8, Histone deacetylase 8 (Homo sapiens, UniProt Q9BY41); test: Inhibition of HDAC8 (unknown origin)
T8 sequence (Q9BY41 whole entry): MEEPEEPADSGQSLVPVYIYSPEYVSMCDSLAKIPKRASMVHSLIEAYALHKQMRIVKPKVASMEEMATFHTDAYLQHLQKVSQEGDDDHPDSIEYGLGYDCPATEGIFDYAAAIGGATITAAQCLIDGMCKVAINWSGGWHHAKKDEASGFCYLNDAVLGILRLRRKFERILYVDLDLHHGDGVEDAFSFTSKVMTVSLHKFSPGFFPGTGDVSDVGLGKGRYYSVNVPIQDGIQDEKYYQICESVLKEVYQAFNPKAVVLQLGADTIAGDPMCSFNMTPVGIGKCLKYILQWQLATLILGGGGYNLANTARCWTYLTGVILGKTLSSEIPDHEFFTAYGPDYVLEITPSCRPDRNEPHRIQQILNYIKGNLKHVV

Histone deacetylase 1 [19] = target: T5, Histone deacetylase 1; test: Inhibition of HDAC1 (unknown origin) preincubated for 90 mins
Histone deacetylase 1 [20] = target: T5, Histone deacetylase 1; test: Competitive inhibition of HDAC1 (unknown origin) at 444 to 1500 nM by Lineweaver-Burk plot analysis; details: dose 444-1500 nM
Histone deacetylase 2 [21] = target: T1, Histone deacetylase 2; test: Inhibition of HDAC2 (unknown origin) preincubated for 60 mins
Histone deacetylase 2 [22] = target: T1, Histone deacetylase 2; test: Inhibition of HDAC2 (unknown origin) preincubated for 5 mins
Histone deacetylase 1 [23] = target: T5, Histone deacetylase 1; test: Inhibition of HDAC1 (unknown origin) preincubated for 120 mins

T1 sequence (Q92769 whole entry): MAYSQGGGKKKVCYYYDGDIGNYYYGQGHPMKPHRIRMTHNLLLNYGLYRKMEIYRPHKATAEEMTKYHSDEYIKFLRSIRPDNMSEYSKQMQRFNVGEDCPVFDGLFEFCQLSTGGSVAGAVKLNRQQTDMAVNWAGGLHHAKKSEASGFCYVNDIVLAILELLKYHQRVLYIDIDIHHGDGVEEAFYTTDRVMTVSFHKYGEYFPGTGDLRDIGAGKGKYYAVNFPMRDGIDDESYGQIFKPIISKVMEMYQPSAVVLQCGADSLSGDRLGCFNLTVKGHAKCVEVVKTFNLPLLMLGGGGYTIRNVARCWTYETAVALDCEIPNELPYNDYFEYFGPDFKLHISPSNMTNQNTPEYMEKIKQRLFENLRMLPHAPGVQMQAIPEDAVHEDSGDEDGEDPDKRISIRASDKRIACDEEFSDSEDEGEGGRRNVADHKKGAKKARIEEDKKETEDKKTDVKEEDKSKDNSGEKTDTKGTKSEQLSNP
Sequence of Histone deacetylase 4 (P56524 whole entry): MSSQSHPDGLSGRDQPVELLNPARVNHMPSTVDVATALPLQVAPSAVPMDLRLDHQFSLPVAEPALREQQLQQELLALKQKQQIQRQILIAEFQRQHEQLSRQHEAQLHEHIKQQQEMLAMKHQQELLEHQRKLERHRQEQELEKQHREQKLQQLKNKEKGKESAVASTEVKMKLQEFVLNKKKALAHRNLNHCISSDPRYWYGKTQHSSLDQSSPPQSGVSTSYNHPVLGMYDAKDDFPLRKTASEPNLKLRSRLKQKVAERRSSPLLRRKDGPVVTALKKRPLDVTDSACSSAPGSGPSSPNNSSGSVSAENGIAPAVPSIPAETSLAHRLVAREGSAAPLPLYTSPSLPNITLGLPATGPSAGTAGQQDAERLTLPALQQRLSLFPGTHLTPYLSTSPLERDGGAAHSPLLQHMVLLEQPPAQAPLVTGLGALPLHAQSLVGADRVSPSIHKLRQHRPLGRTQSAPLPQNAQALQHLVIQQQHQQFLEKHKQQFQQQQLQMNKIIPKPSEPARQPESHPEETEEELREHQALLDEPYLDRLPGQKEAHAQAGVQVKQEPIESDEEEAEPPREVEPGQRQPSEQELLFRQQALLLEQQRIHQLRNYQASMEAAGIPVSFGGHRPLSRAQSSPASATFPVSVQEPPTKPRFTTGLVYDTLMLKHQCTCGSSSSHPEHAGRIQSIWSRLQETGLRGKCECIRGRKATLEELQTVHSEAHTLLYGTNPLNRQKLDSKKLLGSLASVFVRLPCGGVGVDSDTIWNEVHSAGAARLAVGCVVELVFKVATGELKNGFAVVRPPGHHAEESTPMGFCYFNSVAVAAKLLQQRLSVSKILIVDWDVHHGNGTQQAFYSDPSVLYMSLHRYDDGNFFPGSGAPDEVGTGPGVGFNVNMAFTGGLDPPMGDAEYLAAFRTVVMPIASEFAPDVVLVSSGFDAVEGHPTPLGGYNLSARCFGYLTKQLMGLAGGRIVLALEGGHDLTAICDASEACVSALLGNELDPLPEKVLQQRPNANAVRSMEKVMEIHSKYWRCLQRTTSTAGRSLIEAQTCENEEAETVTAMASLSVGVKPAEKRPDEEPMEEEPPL

Compound: Nc1ccccc1NC(=O)CCCCCCC(=O)Nc1ccccc1
- IC50 (Histone deacetylase 4): > 10 µM
- inhibition (Histone deacetylase 2 [1]): Active
- IC50 (Histone deacetylase 2 [2]): 0.53 µM
- IC50 (Histone deacetylase 3 [3]): 0.535 µM
- IC50 (Histone deacetylase 7): > 10 µM
- IC50 [4]: > 10 µM
- IC50 (Histone deacetylase 1 [5]): 0.91 µM
- IC50 (Histone deacetylase 2 [6]): 1.36 µM
- IC50 (Histone deacetylase 11): > 10 µM
- IC50 [7]: > 10 µM
- IC50 (Histone deacetylase 3 [8]): 0.659 µM
- IC50 (Histone deacetylase 1 [9]): 1.14 µM
- IC50 (Histone deacetylase 3 [10]): 0.391 µM
- IC50 (Histone deacetylase 1 [11]): 0.944 µM
- IC50 (Histone deacetylase 2 [12]): 1.17 µM
- inhibition (Histone deacetylase 3 [13]): Active
- IC50 (Histone deacetylase 1 [14]): 0.828 µM
- IC50 (Histone deacetylase 3 [15]): 0.559 µM
- IC50 (Histone deacetylase 5): > 10 µM
- IC50 (MV4-11): 7.24 µM
- IC50 (Histone deacetylase 3 [16]): 0.379 µM
- IC50 (Histone deacetylase 3 [17]): 0.463 µM
- IC50 (Histone deacetylase 9): > 10 µM
- IC50 (Histone deacetylase 2 [18]): 1.27 µM
- IC50 (Histone deacetylase 8): > 10 µM
- IC50 (Histone deacetylase 1 [19]): 1.22 µM
- inhibition (Histone deacetylase 1 [20]): Active
- IC50 (Histone deacetylase 2 [21]): 1.17 µM
- IC50 (Histone deacetylase 2 [22]): 1.16 µM
- IC50 (Histone deacetylase 1 [23]): 1.07 µM

— ChEMBL document CHEMBL5126566, “Comparison of three zinc binding groups for HDAC inhibitors - A potency, selectivity and enzymatic kinetics study” (Bioorg Med Chem Lett, 2022)
